Holding throughout (type): cell-based
Assay [1] relates to Pseudomonas aeruginosa (PA) ATCC 9027. Description: In vitro bioactivity assay. Particulars: for log kill εPLL: Formulation F lens autoclaved in 500 ppm εPLL in PBS. As for the experimental part:
(§1) Cultures were prepared from growing a single colony of each of the bacterial species shown in Table 3 below in 50 ml. trypticase soy broth (TSB) overnight at 37° C. on a rotary shaker. 1 ml of each culture was centrifuged, and the bacterial pellet resuspended in 1.0 ml of the diluent shown in Table 3, where PBST is 19 mM PBS at pH 7.3 (0.83 wt. % NaCl, 0.03 wt. % sodium phosphate monobasic, and 0.24% sodium phosphate dibasic) with 0.05% Tween. For each bacterial species, a suspension of approximately 10^8CFU/mL was prepared by diluting the bacterial suspension to achieve the optical density indicated in Table 3.
(§2) Each suspension was further diluted to approximately 10^4CFU/mL (low inoculum) or 10^7CFU/mL (high inoculum) using the above diluents to make the bacterial inoculums for testing bioactivity of lenses.
(§3) Each lens was rinsed in 2.5 ml sterile PBS for a few seconds, and transferred into an individual well of a 24-well plate containing 1.0 ml of bacteria inoculum. The plates were incubated at 37° C. with gentle shaking. The original inoculums were incubated for the duration of the experiment to confirm the concentrations at each sample recovery time point. At the time point tested, each lens was removed from its well and transferred to a well of a 12-well plate containing 2.5 mL of sterile PBST. The plate was gently swirled gently for about 30 seconds. This step was repeated once for each lens. Such 2× wash step is referred to herein as the bacterial wash step.
(§4) Each washed lens was placed in a microcentrifuge tube containing 1 ml of Dey-Engley (DE) neutralizing broth and adhered bacteria were removed by a combination of sonication for about 2 minutes and vortexing for about 10 minutes. Serial dilutions were made for each recovered cell suspension using DE neutralizing broth and suitable dilutions were plated onto TSA. Plates were incubated overnight at 37° C. and CFUs were counted.
(§5) The CFU for each plate was multiplied by the dilution factor (DF) as well as the plating dilution factor (PDF). The total CFUs recovered for a given sample were then converted to the log 10. To calculate the log kill of an antimicrobial lens, the log of CFU/lens of the antimicrobial lens is subtracted from that of the control lens. For example, if the mean log 10 value of an antimicrobial lens is 1.05 and the mean log 10 value of an otherwise identical control lens lacking the active antimicrobial agent is 5.52, the log kill is 5.52−1.05=4.47.

In assay [2] the test system is Serratia marcescens (SM) ATCC 6538. The experiment in a line: In vitro bioactivity assay. The note with it: for log kill of SM: ionic silicone hydrogel contact lens with about 10 μg PQ-1 and/or about 200 μg εPLL, 24 hour incubation, 10^7 inoculum; for log kill εPLL: Formulation F lens autoclaved in 500 ppm εPLL in PBS. On the procedure: as §1, §2, §3, §4, §5
Assay [3] relates to Staphylococcus aureus (SA) ATCC 13880. The experiment in a line: In vitro bioactivity assay. The note with it: for log kill of SA: ionic silicone hydrogel contact lens with about 10 μg PQ-1 and/or about 200 μg εPLL, 24 hour incubation, 10^7 inoculum; for log kill εPLL: Formulation F lens autoclaved in 500 ppm εPLL in PBS. On the procedure:
as §1, §2, §3, §4, §5

The test system of assay [4] is Pseudomonas aeruginosa (PA) ATCC 9027. Description: In vitro biofilm assay. The note with it: for Log εPLL (log CFU recovered per εPLL lens): 10^7 CFU/mL, 2 hours adhesion, 24 hours biofilm growth; for Log Reduction: versus control lens. On the procedure:
(§6) Lenses at the 0 hour time point and from the 168 hour time point were used to test whether they supported biofilm formation. The lenses were rinsed for 5 seconds in 2.5 mL of sterile PBS then transferred into an individual well of a 24-well plate containing 1.0 mL of bacterial inoculum at approximately 10^7CFU/mL, prepared as described in Example 5. The plates were incubated for 2 hours on a 37° C. with gentle rotary agitation. The remaining inoculum, i.e. not incubated with lenses, was also incubated on the shaker for the duration of each experiment to determine the cfu/mL of the inoculum at t=2 hr and t=24 hr. After 2 hours incubation each lens was washed using the bacterial wash step described in Example 5 then placed on an insert of a 24-well plate for biofilm formation as described below. The inoculum concentration (at t=0 hr and 2 hr) was confirmed by serial dilution, plating onto TSA, incubating overnight at 37° C. and colony counting.
(§7) Custom-made mushroom-shaped stainless steel inserts, depicted in FIG. 1, were placed in each well of a 24-well plate. The cap portion of each insert has a diameter of approximately 14 mm and a curvature to match the posterior surface of a contact lens. The height of each insert is approximately 11 mm. One mL of sterile media/diluent was added to each well. Each preloaded, washed lens (as described above) was placed on the top (cap portion) of an insert, convex side up. The dimensions of the inserts and the volume of the media are such that the periphery of the placed lens is in contact with the media/diluent and the center portion of the lens is at the liquid/air interface. Plates were loosely sealed to prevent evaporation, and incubated for 24 hours at 37° C., with rotary agitation. After incubation, each lens was subjected to the bacterial wash step as described in Example 5. Bacteria were recovered from the washed lenses and log kill calculated as described above in Example 5. Each t-24 hr inoculum concentration was confirmed as described above for t=0 and t=2 hr time points.

Assay [5] deals with Serratia marcescens (SM) ATCC 6538. The experiment in a line: In vitro biofilm assay. Particulars: for Log εPLL (log CFU recovered per εPLL lens): 10^7 CFU/mL, 2 hours adhesion, 24 hours biofilm growth; for Log Reduction: versus control lens. As for the experimental part: as §6, §7
The test system of assay [6] is Staphylococcus aureus (SA) ATCC 13880. The experiment in a line: In vitro biofilm assay. Particulars: for Log εPLL (log CFU recovered per εPLL lens): 10^7 CFU/mL, 2 hours adhesion, 24 hours biofilm growth; for Log Reduction: versus control lens. On the procedure: as §6, §7
Setting [7] is: Formulation F lenses without εPLL, 72 hours in PBS plus PQ-1, high inoculum (10^7), 24-hour incubation.
[8] abbreviates: SM, Formulation F lenses without εPLL, 72 hours in PBS plus PQ-1, high inoculum (10^7), 24-hour incubation.
[9] abbreviates: SA, Formulation F lenses without εPLL, 72 hours in PBS plus PQ-1, high inoculum (10^7), 24-hour incubation.
Setting [10] is: lenses packaged in PBS containing 30 μg/ml PQ-1.

As for polyquarternium-1 [PQ-1], the “log kill 10 μ/ml PQ-1” value in assay [1] (24 hr, Formulation F lens without εPLL) is recorded as −0.23; in assay [2] (SM, 24 hr, Formulation F lens without εPLL), 0.55; in assay [3] (SA, 24 hr, Formulation F lens without εPLL), −0.74. Further, the “log kill at 10 μg/ml PQ-1” value in assay [1] (setting [7]) is on record as −0.23; in assay [2] (setting [8]), −0.55; in assay [3] (setting [9]), −0.54. Besides, the “log kill at 30 μg/ml PQ-1” value in assay [1] (setting [7]) is reported as 0.16; in assay [2] (setting [8]), 0.55; in assay [3] (setting [9]), 1.47. Further, the “log kill at 100 μg/ml PQ-1” value in assay [1] (setting [7]) is reported as 3.43; in assay [2] (setting [8]) it was 0.31; in assay [3] (setting [9]) it was 3.04. The “log kill of SM” value in assay [2] was “no significant activity”. In assay [3], the “log kill of SA” value is “no significant activity”. The “antimicrobial activity in biofilm assay” value in assay [4] (setting [10]) and in assay [5] (setting [10]) was “lack of antimicrobial activity” in each case.
In the case of ε-polylysine [εPLL], the “log kill εPLL” value is on record as 2.63 in assay [1] (2 hr); 4.04 in assay [1] (6 hr); “≧4.04” in assay [1] (24 hr); 0.19 in assay [2] (SM, 2 hr); 0.74 in assay [2] (SM, 6 hr); 1.63 in assay [2] (SM, 24 hr). Further, the “log kill εPLL” value in assay [3] (SA, 2 hr) is −0.06; in assay [3] (SA, 6 hr), 0.37; in assay [3] (SA, 24 hr), 1.85. In addition, the “log kill of SM” value in assay [2] is listed as about 1.5 log. Also, the “log kill of SA” value in assay [3] is recorded as about 2 log. In addition, the “Log εPLL (log CFU recovered per εPLL lens)” value was determined as 0.9 in assay [4] (0 hr wash lenses); 0.6 in assay [4] (168 hr wash lenses); 1.0 in assay [5] (0 hr wash lenses); 3.8 in assay [5] (168 hr wash lenses); 0.8 in assay [6] (0 hr wash lenses); 3.1 in assay [6] (168 hr wash lenses). Moreover, the “Log Reduction” value in assay [4] (0 hr wash lenses) turned out to be 5.0; in assay [4] (168 hr wash lenses) it was 4.9; in assay [5] (0 hr wash lenses) it was 3.5; in assay [5] (168 hr wash lenses) it was 1.7; in assay [6] (0 hr wash lenses), 3.7; in assay [6] (168 hr wash lenses) it was 2.4.

These data come from patent US20140178327A1, “Antimicrobial Ophthalmic Devices” (CooperVision International Holding Company, LP, priority 2012, published 2014).
